# Assay results published in paper PMC6803849, “Biodistribution of Nanostructured Lipid Carriers in Mice Atherosclerotic Model” (Molecules, 2019).
# Tests used:
# Experiment in all cases: MMP inhibition assay with fluorogenic substrate
# Format in all cases: biochemical
# hMMP-10 = molecular target: T1, hMMP-10 (Homo sapiens, UniProt P09238)
# T1 construct: purchased R&D Systems
# Method: (§1) The binding capacity of the RXP470.1 ligand grafted on RXP-NLC surface was first assessed through an inhibition assay in the presence of a fluorogenic substrate. The affinity and selectivity profile of RXP-NLC was determined on a set of eight human MMPs and compared to the parent ligand.
# (§2) Affinity and selectivity profile of RXP-NLC were determined toward a set of 8 human MMPs. Human MMP-8, -9, -12, and -13 were produced at CEA in Saclay according to a procedure previously reported. Other MMPs were purchased from R&D Systems (Minneapolis, MN, USA). MMP inhibition assays were carried out in 50 mM Tris-HCl buffer, pH = 6.8, 10 mM CaCl2 at 25 °C as previously described. Pro-MMPs were pre-activated by p-aminophenylmercuric acetate following the method described by R&D Systems. Titration experiments were carried out to determine the active enzyme concentration for each MMP prior to the assay. Continuous kinetic assays were performed by recording the fluorescence increase induced by the cleavage of fluorogenic substrates (Mca-Pro-Leu- Gly-Leu-Dpa-Ala-Arg-NH2 for MMP-1, -2, -7, -8, -9, -10, -12, -13, and -14 and Mca-Arg-Pro-Lys-Pro- Val-Glu- Nva-Trp-Arg-LysDNP-NH2 for MMP-3). A typical experiment was performed in 200 μL of Tris buffer containing 0.2–0.5 nM of MMP, and a 4.5 μM concentration of fluorogenic substrates. Black, flat-bottomed, 96-well non-binding surface plates (Corning-Costar, Schiphol-RijK, Netherlands) were used for these tests. Fluorescence signals were monitored using a Fluoroskan Ascent photon counter spectrophotometer (Thermo-Labsystems, Courtaboeuf, France) equipped with a temperature control device and a plate shaker. […] Ki values were determined using the method proposed by Horovitz and Leviski.
# hMMP-12 = molecular target: T2, hMMP-12 (Homo sapiens, UniProt P39900)
# T2 construct: made in house
# Method: as §1, §2
# hMMP-14 = molecular target: T3, hMMP-14 (Homo sapiens, UniProt P50281)
# T3 construct: purchased R&D Systems
# Method: as §1, §2
# hMMP-9 = molecular target: T4, hMMP-9 (Homo sapiens, UniProt P14780)
# T4 construct: made in house
# Method: as §1, §2
# hMMP-2 = molecular target: T5, hMMP-2 (Homo sapiens, UniProt P08253)
# T5 construct: purchased R&D Systems
# T5 sequence (P08253 110-660): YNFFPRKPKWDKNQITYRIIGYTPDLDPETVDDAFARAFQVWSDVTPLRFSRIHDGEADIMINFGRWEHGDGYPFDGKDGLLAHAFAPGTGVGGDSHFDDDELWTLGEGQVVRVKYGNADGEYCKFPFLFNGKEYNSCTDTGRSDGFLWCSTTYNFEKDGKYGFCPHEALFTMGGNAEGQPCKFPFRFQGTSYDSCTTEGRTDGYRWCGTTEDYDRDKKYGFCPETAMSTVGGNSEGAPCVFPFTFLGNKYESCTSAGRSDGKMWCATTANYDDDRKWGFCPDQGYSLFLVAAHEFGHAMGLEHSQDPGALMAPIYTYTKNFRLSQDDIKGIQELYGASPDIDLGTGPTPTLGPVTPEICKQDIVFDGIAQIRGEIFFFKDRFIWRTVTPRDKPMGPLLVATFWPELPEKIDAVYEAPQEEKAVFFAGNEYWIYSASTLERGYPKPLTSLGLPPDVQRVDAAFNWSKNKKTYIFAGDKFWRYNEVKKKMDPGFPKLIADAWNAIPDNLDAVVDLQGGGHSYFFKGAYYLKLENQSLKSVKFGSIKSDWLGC
# Method: as §1, §2
# hMMP-3 = molecular target: T6, hMMP-3 (Homo sapiens, UniProt P08254)
# T6 construct: purchased R&D Systems
# Method: as §1, §2
# hMMP-13 = molecular target: T7, hMMP-13 (Homo sapiens, UniProt P45452)
# T7 construct: made in house
# Method: as §1, §2
# hMMP-8 = molecular target: T8, hMMP-8 (Homo sapiens, UniProt P22894)
# T8 construct: made in house
# Method: as §1, §2
# T2 sequence (P39900 106-470): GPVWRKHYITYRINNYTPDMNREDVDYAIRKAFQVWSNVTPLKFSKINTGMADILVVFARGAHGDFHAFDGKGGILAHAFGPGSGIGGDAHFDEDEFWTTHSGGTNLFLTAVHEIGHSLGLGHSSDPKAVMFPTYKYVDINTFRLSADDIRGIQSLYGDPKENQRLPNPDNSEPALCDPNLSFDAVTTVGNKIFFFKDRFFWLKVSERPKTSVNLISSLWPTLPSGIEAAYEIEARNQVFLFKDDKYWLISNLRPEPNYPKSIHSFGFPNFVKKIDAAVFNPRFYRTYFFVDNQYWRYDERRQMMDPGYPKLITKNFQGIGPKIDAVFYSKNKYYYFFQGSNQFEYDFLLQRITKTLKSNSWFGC
# T6 sequence (P08254 100-477): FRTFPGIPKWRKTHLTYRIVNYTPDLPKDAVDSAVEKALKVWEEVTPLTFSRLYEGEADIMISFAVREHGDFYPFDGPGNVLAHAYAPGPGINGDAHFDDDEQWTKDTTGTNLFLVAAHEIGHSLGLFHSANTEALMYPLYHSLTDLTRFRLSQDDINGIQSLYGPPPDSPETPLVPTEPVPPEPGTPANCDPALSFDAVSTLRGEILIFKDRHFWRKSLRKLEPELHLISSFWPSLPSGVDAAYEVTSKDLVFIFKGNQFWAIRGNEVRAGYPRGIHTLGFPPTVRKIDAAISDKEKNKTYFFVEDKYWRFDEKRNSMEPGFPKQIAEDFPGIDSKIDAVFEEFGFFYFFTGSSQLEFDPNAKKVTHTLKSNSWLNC
# T4 sequence (P14780 94-707): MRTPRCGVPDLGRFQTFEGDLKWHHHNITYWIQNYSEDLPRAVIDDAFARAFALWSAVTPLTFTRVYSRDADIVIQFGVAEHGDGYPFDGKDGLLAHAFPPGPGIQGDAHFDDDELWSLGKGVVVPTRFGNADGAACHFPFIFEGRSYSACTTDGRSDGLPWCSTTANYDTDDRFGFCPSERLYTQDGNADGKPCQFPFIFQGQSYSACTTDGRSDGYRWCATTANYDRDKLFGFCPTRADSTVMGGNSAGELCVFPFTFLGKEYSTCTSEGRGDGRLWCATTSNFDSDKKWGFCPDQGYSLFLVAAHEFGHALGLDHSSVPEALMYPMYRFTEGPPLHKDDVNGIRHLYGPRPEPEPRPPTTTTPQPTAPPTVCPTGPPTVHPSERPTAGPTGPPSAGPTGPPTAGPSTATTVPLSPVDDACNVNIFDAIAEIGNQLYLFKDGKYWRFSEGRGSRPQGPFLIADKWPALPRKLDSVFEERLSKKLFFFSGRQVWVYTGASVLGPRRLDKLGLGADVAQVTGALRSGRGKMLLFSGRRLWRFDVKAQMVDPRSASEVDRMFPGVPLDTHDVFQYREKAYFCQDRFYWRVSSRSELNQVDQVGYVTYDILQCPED
# T1 sequence (P09238 99-476): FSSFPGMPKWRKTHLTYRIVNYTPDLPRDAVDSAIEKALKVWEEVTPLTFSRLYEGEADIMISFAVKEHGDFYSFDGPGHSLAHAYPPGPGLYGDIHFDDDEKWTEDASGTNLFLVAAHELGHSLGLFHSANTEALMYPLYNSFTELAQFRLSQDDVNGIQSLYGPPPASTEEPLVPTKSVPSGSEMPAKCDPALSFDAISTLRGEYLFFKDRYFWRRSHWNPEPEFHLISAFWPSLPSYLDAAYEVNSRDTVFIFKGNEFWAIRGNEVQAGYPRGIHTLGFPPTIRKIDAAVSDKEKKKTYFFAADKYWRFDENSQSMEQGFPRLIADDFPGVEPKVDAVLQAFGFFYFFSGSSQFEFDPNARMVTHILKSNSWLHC
# T8 sequence (P22894 101-467): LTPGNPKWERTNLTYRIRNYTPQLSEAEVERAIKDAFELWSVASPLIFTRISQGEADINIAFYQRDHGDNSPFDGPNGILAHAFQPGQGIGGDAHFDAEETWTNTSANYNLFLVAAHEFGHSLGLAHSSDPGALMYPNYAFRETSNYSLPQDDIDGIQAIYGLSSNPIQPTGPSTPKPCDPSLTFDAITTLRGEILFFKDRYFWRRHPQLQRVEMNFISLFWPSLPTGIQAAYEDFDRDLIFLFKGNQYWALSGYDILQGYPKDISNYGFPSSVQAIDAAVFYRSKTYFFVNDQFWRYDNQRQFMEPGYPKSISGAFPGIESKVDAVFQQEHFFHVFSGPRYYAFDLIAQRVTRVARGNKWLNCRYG
smiles,measurement,setting,value
NC(=O)[C@H](CCC(=O)O)NC(=O)[C@H](CCC(=O)O)NC(=O)[C@H](Cc1cc(-c2ccc(-c3cccc(Cl)c3)cc2)no1)CP(=O)(O)c1ccc(Br)cc1 [RXP470.1],Ki,hMMP-10,17 ± 2 nM
same,Selectivity factor hMMP-10,hMMP-10; relative to hMMP12,65
same,Ki,"hMMP-12; 50 mM Tris-HCl buffer, pH 6.8, 10 mM CaCl2, 25 °C, mean ± SD of three independent experiments",0.26 ± 0.05 nM
same,Selectivity factor hMMP-12,hMMP-12; relative to hMMP12,1
same,Ki,hMMP-14,150 ± 21 nM
same,Selectivity factor hMMP-14,hMMP-14; relative to hMMP12,577
same,Ki,hMMP-9,170 ± 50 nM
same,Selectivity factor hMMP-9,hMMP-9; relative to hMMP12,654
same,Ki,hMMP-2,52 ± 4 nM
same,Selectivity factor hMMP-2,hMMP-2; relative to hMMP12,200
same,Ki,hMMP-3,80 ± 2 nM
same,Selectivity factor hMMP-3,hMMP-3; relative to hMMP12,308
same,Ki,hMMP-13,11 ± 1 nM
same,Selectivity factor hMMP-13,hMMP-13; relative to hMMP12,42
same,Ki,hMMP-8,120 ± 40 nM
same,Selectivity factor hMMP-8,hMMP-8; relative to hMMP12,462
